# Experimental data as given in US20240335456A1, “CO-CRYSTAL COMPOSITION AND ITS PHARMACEUTICAL USE” (SYN-NAT PRODUCTS ENTERPRISE LLC, priority 2015, published 2024).
# Several values for one entry are separate records, joined by “and”; a condition that tells them apart may be missing. Equal values may be shown once.
# How the values were obtained:
# [1] = tested on: benign prostatic hyperplasia (BPH); experiment: Mouse model of BPH (white cell number, lecithin density, prostate tissue); type: in vivo
# From the text: In the BPH model group (FIG. 7), glands proliferation and a small amount of lymphocytes and plasma cells were shown.
# [2] = tested on: Human fibroblast-like synoviocytes rheumatoid arthritis (HFLS-RA) cells; experiment: HFLS-RA cell proliferation (cell numbers 48 hours after treatment); type: cell-based
# Experimental: Human fibroblast-like synoviocytes rheumatoid arthritis (HFLS-RA) cells were cultured in vitro and proliferation of the cells was measured by quantifying cells numbers 48 hours after treatment. The cells were treated with DCP at concentrations of 1.563 μg/ml; 3.125 μg/ml; 6.25 μg/ml; 12.5 μg/ml; 25 μg/ml; 50 μg/ml; or 100 μg/ml.
# [3] = tested on: Human MH7A synovial cells; experiment: MH7A synovial cell proliferation (cell numbers 48 hours after treatment); type: cell-based
# Experimental: Human MH7A synovial cells were cultured in vitro and proliferation of the cells was measured by quantifying cells numbers 48 hours after treatment. The cells were treated with DCP at concentrations of 1.563 μg/ml; 3.125 μg/ml; 6.25 μg/ml; 12.5 μg/ml; 25 μg/ml; 50 μg/ml; or 100 μg/ml.
# [4] = tested on: nonbacterial prostatitis; experiment: Mouse model for prostatitis, prostate tissue pathology; type: in vivo
# From the text: Mouse model for prostatitis was utilized to study the effects of DCP.
# [5] = tested on: benign prostatic hyperplasia (BPH); experiment: Study of DCP in male cancer patients also suffering from BPH; type: in vivo, human
# [6] = tested on: rheumatoid arthritis, osteoarthritis, arthrolithiasis (gout); experiment: Phase II and Phase III clinical trials in SCLC patients also suffering from rheumatoid arthritis, osteoarthritis, gout and other diseases; type: in vivo, human; conditions: DCP 1 to about 10 mg/kg body weight
# Experimental: DCP alleviated symptoms for clinical trial patients suffering from multiple diseases. In China, DCP (1 to about 10 mg/kg body weight) in combination with cisplatin and Paclitaxel were used in Phase II and Phase III clinical trials for treatment of patients having small cell lung cancer (SCLC). The cancer patients were simultaneously suffering from a number of proliferative diseases, degenerative diseases, immunological diseases, and other diseases as indicated above. For example, some of the patients were suffering from rheumatoid arthritis, osteoarthritis, arthrolithiasis (gout) and/or other diseases. […] Such diseases include at least rheumatoid arthritis, osteoarthritis, and arthrolithiasis (gout). […] When DCP was administered with an additional therapeutic agent or adjuvant therapy agent such as folic acid, coenzyme Q10, curcumin, glutathione (GSH), aloe vera, oryzanol, 5-fluorouracil, bortezomib, the effects to reduce disease symptoms were further enhanced.
# [7] = Phase I dose-escalation, Chinese cancer patients; cited from earlier work
# [8] = 48 hours after treatment, 1.563-100 μg/ml
# [9] = majority of BPH patients, after two weeks of use
molecule,measurement,setting,value
"CC(C)(C)NC(=O)[C@H]1CC[C@H]2[C@@H]3CC[C@H]4NC(=O)C=C[C@]4(C)[C@H]3CC[C@]12C [PROSCAR, Finasteride, reference compound]","Prostate tissue findings (inflammation cells, glandular proliferation)","[1]; PROSCAR drug group, FIG. 8","glandular proliferation was not clear, but inflammation cells were reduced"
Dicycloplatin [DCP],"IC50, inhibition of HFLS-RA cell proliferation",[2]; [8],3.914 µg/mL and 3.125 µg/mL
same,HFLS-RA cell proliferation inhibited,[2]; FIG. 1,99%
same,"IC50, inhibition of MH7A cell proliferation",[3]; [8],8.926 µg/mL and 8.92 µg/mL
same,MH7A cell proliferation inhibited,[3]; FIG. 2,99%
same,"Effective amount for human, based on the effective amount in mice",[4]; extrapolated from mouse prostatitis model,1 to 10 mg/Kg body weight
same,Outcome of mice with nonbacterial prostatitis,[4]; treatment for 1-2 weeks,returned to normal
same,Granulomatous lesions in prostate tissue,"[4]; treatment for one week, FIG. 5",significantly reduced in some tissues or eliminated in others
same,Inflammatory cells in interstitial infiltration,"[4]; treatment for one week, FIG. 5",significantly reduced
same,Lecithin corpuscle (density),[1]; DCP injection,30 ± 0.53
same,White cell (number/μL),[1]; DCP injection,3250 ± 65 number/μL
same,Lecithin corpuscle (density),[1]; DCP oral,27 ± 0.50
same,White cell (number/μL),[1]; DCP oral,3500 ± 71 number/μL
same,Enlargement of prostate,[1]; after treatment for a therapeutic period,significant inhibited
same,"Prostate tissue findings (inflammatory cells, glandular proliferation)","[1]; intravenous administration, FIG. 9","inflammatory cells were significantly reduced, and glandular proliferation was inhibited"
same,"Prostate tissue findings (inflammatory cells, glandular proliferation)","[1]; oral administration, FIG. 10",inflammatory cells were significantly reduced and glandular proliferation was inhibited
same,Enlargement of prostate,[5]; [9],obviously inhibited
same,Maximum of urinary volume,[5]; [9],more than 12 mL/s
same,PSA,[5]; [9],decreased
same,Symptoms of BPH,[5]; male patients with cancers and BPH,significantly alleviated
same,Side effects,[6],less patients receiving DCP alone were suffering from side effects and the side effects were of less severity
same,"Symptoms of proliferative, degenerative, immunological and other diseases",[6],significantly alleviated the symptoms
same,Tolerated doses,[7],100 to 550 mg/m^2
